Source: patent US8080237B2, “Use of tellurium compounds for protection from ultra-violet radiation” (priority 2005, dated 2011)
Like-named read-outs stand apart in the source and are kept apart here.

Key:
[1] = system: IL-10 gene expression in epidermal cells; test: RT-PCR for IL-10 transcripts in epidermal cells from suction blisters after in vivo UVB irradiation of volunteers' forearms; parameters: species or system human; conditions: 3% AS101 in petroleum jelly U.S.P., topical on forearm before UVB; blisters 24 h after UVB exposure; compared with UVB alone; G3PDH as control transcript
Experimental: In normal volunteers, suction blisters were induced by vacuum and heat on normal skin, or on UVB-irradiated skin of volar forearms 24 h after exposure. Single cell suspensions of epidermal cells were prepared by limited trypsinization of the blister roof. Briefly, epidermal sheets were washed in PBS (Biofluids. Roekville. MD) and floated in 0.5% trypsin (United Stares Biochemical Corp. Cleveland. OH) for 45 min al 37° C., transferred to HBSS (Biofluids) containing 0.05 DNase (Sigma Chemical Co. SI. Louis. MO) and 10% heat-inactivated pooled human AB^+ serum (Sigma Chemical Co.) and disaggregated by repeated aspirations and expulsions through a syringe. […]
UVB irradiation in vivo was performed with 4 FS20 fluorescent lamps (Sylvania. Springfield. Va.) that emit wavelengths between 280 and 320 nm with a peak at 313 nm. Light intensity was determined using an IL-770 Germicidal-Erythemal radiometer (international Light Inc. Newburyport. Me.) equipped with a sensor and a 313-nm filter. […]
The frozen pellets of epidermal cells were dissolved by repeated pipetting 800 μl of lysis bufer and transferred to RNase-free Eppendorf tubes containing 500 μg of superparamagnetic polystyrene Dynaheads Oligo(dT)25 (Dynal. Great Neck. N.Y.). […] The concentration of mRNA was measured on a Beckman DU-64 spectrophotometer employing a 5 μl Ultra microcell. […]

rats = test: Toxicity tests (LD50) in rats; assay type: in vivo; conditions: intravenous and intramuscular administration
IL-10 = conditions: Cell Immunol. 176(2):180-5, 1997; J. Natl. Cancer Inst. 88(18):1276-84, 1996; cited from earlier work
interferon (IFN) [2] = conditions: mice; J. Natl. Cancer Inst. 88(18):1276-84, 1996; cited from earlier work
interferon (IFN) [3] = conditions: humans; Nat. Immun. Cell Growth Regul. 9(3):182-90, 1990; Immunology 70(4):473-7, 1990; cited from earlier work

Cl[TeH]1(Cl)(Cl)OCCO1.N [AS101, ammonium trichloro(dioxyethylene-O,O′)tellurate]
IL-10 transcription in epidermal cells after UVB (RT-PCR, FIG. 1) [1]: significant decrease of IL-10 | LD50 relative to the immunologically effective dose (rats): 500-1000 folds | effect on IL-10 at the m-RNA level (IL-10): inhibit IL-10 at the m-RNA level | activation of interferon (IFN) (interferon (IFN) [2]): potent activator of interferon | activation of interferon (IFN) (interferon (IFN) [3]): potent activator of interferon
